# Reference: US6828321B2, “1,2,4-Benzotriazine oxides as radiosensitizers and selective cytotoxic agents” (priority 1986, dated 2004)
# Where two headings read alike, the source gives them in different places.
# Columns and labels:
# hypoxic cells in culture = experiment: Radiosensitivity in vitro: drug concentration giving a sensitizer enhancement ratio of 1.6; type: cell-based; details: concentration of drug necessary to produce a sensitizer enhancement ratio of 1.6 of hypoxic cells in culture
# Excerpt: The results of assays to determine the concentration of drug necessary to produce a sensitizer enhancement ratio of 1.6 of hypoxic cells in culture are as follows: […]
# HA-1 cells = experiment: Hypoxic versus aerobic cytotoxicity from survival curves of HA-1 cells; type: cell-based; details: for cytotoxicity against hypoxic HA-1 tumor cells in vitro compared to 22 / RHT (Relative Hypoxic Cytoxicity): hypoxic conditions; for RHT (Relative Hypoxic Cytoxicity): ratio of equitoxic concentrations of 22:analog; for RHT (Relative Hypoxic Cytoxicity) / HCR (Hypoxic Cytoxicity Ratio): HA-1 cells; for HCR (Hypoxic Cytoxicity Ratio): ratio of equitoxic concentrations of each analog, hypoxic:aerobic conditions
# [1] = Polarographic half-wave reduction potential; type: physicochemical; details: Britton & Robinson pH 7.4 buffer, dropping mercury electrode
# Determination of LD50 = type: in vivo; details: mouse, in vivo; Balb/c female mice 3 months of age; ip (or iv) injection
# Experimental: (§1) LD50 is determined in BALB/c female mice (weighing 20-25 g) following intraperitoneal (ip) injection, unless the compound tested has low lipophilicity and is very soluble, wherein intravenous (iv) administration is used. LD50 values at 1, 2, 5, and 60 days are determined by administering graded doses of the drug dissolved in physiological saline immediately prior to injection.
# Solubility = type: physicochemical
# [2] = Octanol-water partition coefficient (method of Fujita et al.); type: physicochemical; details: pH 7.4 buffer
# BALB/c female mice = experiment: Determination of LD50; type: in vivo; details: Balb/c female mice 3 months of age; ip (or iv) injection
# Experimental: as §1
# [3] = tested on: aerobic and hypoxic cells in culture (human, mouse, and hamster); experiment: Cytotoxicity tests on aerobic and hypoxic cells in culture; type: cell-based
# Experimental: The cells in spinner flasks were gassed for one hour at 37° C. with either air or nitrogen containing 5% CO2 prior to adding the specified amounts of the drug.
# [4] = tested on: Chinese hamster ovary (CHO) cells; experiment: Aerobic radiosensitization of CHO cells by hypoxic pre- or post-treatment; type: cell-based; details: for cell survival after drug treatment alone: 20 μM, hypoxic
# Excerpt: The sensitization was predominantly a change in the slope of the radiation survival curve. Do decreased from 1.34 Gy (95% confidence limits: 1.09-1.76 Gy) to 0.80 Gy (95% confidence limits: 0.73-0.88 Gy), based on least-squares regression analysis of pooled data for the exponential portions of the survival curves for control and treated cells. However, sensitization at low radiation doses was also readily apparent.
# SCCVII tumor [5] = experiment: Fractionated radiotherapy of SCCVII tumors (8 x 2.5 Gy in four days); details: SR 2508 1000 mg/kg before each dose; for effect on growth delay of irradiated tumors: compound 22 0.08 mmole/kg alone before or with HDZ after irradiation, FIG. 6; for effect on radiation response, clonogenic tumor cell survival: compound 22 0.08 mmole/kg alone or with HDZ, FIG. 5
# Excerpt: Our protocol was to use eight doses of 2.5 Gy/dose in four days (irradiating 2×/day). […] We used two different types of controls. […] We assayed the efficacies of the treatments using clonogenic cell survival and also regrowth delay.
# SCCVII tumor [6] = experiment: Enhanced tumor cell toxicity using hydralazine; type: in vivo, mice; details: FIG. 3
# Experimental: For this assay, SCCVII carcinomas in female C3H mice weighing 20-25 g were used. These mice were bred under specific pathogen-free conditions and were 3-4 months old at the beginning of each experiment. The SCCVII tumor was grown intradermally in the flank from an inoculation of 2×10^5 tumor cells taken from the 2nd-8th in vitro passage of the tumor cells after removal from the previous in vivo tumor. Two tumors per mouse were implanted, and were used as subject tumors when they reached a volume of approximately 100 ml. At this point the tumors contained approximately 20% hypoxic cells.
# The amount of cell killing was judged by survival rate of dissected and cultured tumor cells as follows. The tumor-bearing mice were killed 24 hr after irradiation, and tumors were dissected from the skin, cut into several pieces, and made into a fine brei by high-speed chopping with a razor blade attached to a jigsaw. The brei was added to 30 ml of Hank's buffered salt solution (HBSS) containing 0.02% DNase, 0.05% promase, and 0.02% collagenase. The suspension was stirred for 30 min at 37° C., filtered, and centrifuged at 1,600 rmp for 10 min at 4° C. […] Suitable dilutions of this serum plated into 60- or 100-mm polystyrene petri dishes (Lux Scientific Corp) in 5 or 15 ml of medium. After incubation for 13 days, the colonies were fixed and stained, and those containing 50 cells or more were counted. […]
# SCCVII carcinomas = experiment: In vivo assay for activity in combination with radiation; set-up: species or system C3H mice; details: fixed radiation dose 20 Gy, 2 hr after to 3 hr before drug injection; FIG. 2
compound,measurement,setting,value
CCCCCCCCCCc1ccc2nc(N)n[n+]([O-])c2c1,melting point,,177 °C (dec.)
NC(=O)c1ccc2nc(N)n[n+]([O-])c2c1,melting point,,300 °C
CC(=NO)c1ccc2nc(N)n[n+]([O-])c2c1,melting point,,278 °C (dec.)
"6(7)-methoxy-3-amino-1,2,4-benzotriazine 1,4-dioxide",C1.6,hypoxic cells in culture,˜1.0 mM
"[O-][n+]1nc(O)[n+]([O-])c2ccccc21 [3-hydroxy-1,2,4-benzotriazine 1,4-dioxide]",C1.6,hypoxic cells in culture,˜2.0 mM
"Nc1nc2ccc(Cl)cc2[n+]([O-])n1 [7-chloro-3-amino-1,2,4-benzotriazine 1-oxide]",C1.6,hypoxic cells in culture,3.3 mM
"Nc1n[n+]([O-])c2cc([N+](=O)[O-])ccc2[n+]1[O-] [Compound 14, 7-nitro-3-amino-1,2,4-benzotriazine 1,4-dioxide]",cytotoxicity against hypoxic HA-1 tumor cells in vitro compared to 22,HA-1 cells,significantly enhanced cytotoxicity
same,RHT (Relative Hypoxic Cytoxicity),HA-1 cells,2
same,HCR (Hypoxic Cytoxicity Ratio),HA-1 cells,140
same,E1/2,[1],−133 mV
"CCN(CC)CCCNc1n[n+]([O-])c2ccccc2[n+]1[O-] [Compound 18a, 3-(3-N,N-diethylaminopropylamino)-1,2,4-benzotriazine 1,4-dioxide]",cytotoxicity against hypoxic HA-1 tumor cells in vitro compared to 22,HA-1 cells,significantly enhanced cytotoxicity
same,LD50,Determination of LD50,250 µmol/kg
same,E1/2,[1],−348 mV
same,solubility,Solubility; read-out: Solubility,> 181 mM
same,logP,[2],-1.34
"CCN(CC)CCNc1n[n+]([O-])c2cc([N+](=O)[O-])ccc2[n+]1[O-].Cl [Compound 21, 7-nitro-3-(2-N,N-diethylaminoethylamino)-1,2,4-benzotriazine 1,4-dioxide hydrochloride]",cytotoxicity against hypoxic HA-1 tumor cells in vitro compared to 22,HA-1 cells,significantly enhanced cytotoxicity
same,RHT (Relative Hypoxic Cytoxicity),HA-1 cells,3
same,HCR (Hypoxic Cytoxicity Ratio),HA-1 cells,211
same,LD50,BALB/c female mice,0.40
same,E1/2,[1],−140 mV
same,solubility,Solubility,96.40 mM
same,Log P,[2],−0.20
"Nc1n[n+]([O-])c2ccccc2[n+]1[O-] [Compound 22, 3-amino-1,2,4-benzotriazine 1,4-dioxide]","drug concentration required under hypoxia for equal cell killing, as share of the aerobic concentration",[3],1 to 2%
same,cell survival after drug treatment alone,[4]; 1.0 h preirradiation exposure,approximately 32%
same,cell survival after drug treatment alone,[4]; 1.5 h postirradiation treatment,23%
same,cell survival after drug treatment alone,[4]; 1.5 h preirradiation exposure,~19%
same,cell survival after drug treatment alone,[4]; 2.0 h preirradiation exposure,~8%
same,cell survival after drug treatment alone,[4]; 2.5 h preirradiation exposure,~2%
same,Do of the radiation survival curve of treated cells,"[4]; pooled data of treated cells, control 1.34 Gy, 95% confidence limits 0.73-0.88 Gy",0.80 Gy
same,effect on growth delay of irradiated tumors,SCCVII tumor [5],large increase in effect compared to radiation or drug alone
same,"effect on radiation response, clonogenic tumor cell survival",SCCVII tumor [5],large enhancement of the radiation response
same,factor by which survival was reduced,SCCVII tumor [6]; combination with hydralazine,10^3
same,"cell killing in the SCCVII tumor, agent alone",SCCVII tumor [6]; single agent,neither hydralazine nor the aforementioned benzotriazine compound produced any significant cell killing
same,tumor cell killing combined with radiation compared to radiation only,SCCVII carcinomas,enhanced cell killing compared to radiation only
"O=C(Cn1ccnc1[N+](=O)[O-])NCCO [SR 2508, reference compound]",effect on growth delay of irradiated tumors,SCCVII tumor [5],no radiosensitizing effect
same,"effect on radiation response, clonogenic tumor cell survival",SCCVII tumor [5],no effect
